Laboratory results as given in PubChem BioAssay (NCI).
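How tested: cells in 96-well plates exposed to compound for 48 hours at five concentrations. TGI: concentration producing complete growth inhibition.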

What was measured:
Test in all cases: growth of human tumour cells (NCI), 48 h
SK-MEL-5 melanoma = tested on: SK-MEL-5 melanoma
RPMI-8226 leukemia = tested on: RPMI-8226 leukemia
UACC-62 melanoma = tested on: UACC-62 melanoma
ACHN renal = tested on: ACHN renal
HT29 colon = tested on: HT29 colon
786-0 renal = tested on: 786-0 renal
CCRF-CEM leukemia = tested on: CCRF-CEM leukemia
HOP-62 NSCLC = tested on: HOP-62 NSCLC
UO-31 renal = tested on: UO-31 renal
MOLT-4 leukemia = tested on: MOLT-4 leukemia
M19-MEL melanoma = tested on: M19-MEL melanoma
NCI-H23 lung = tested on: NCI-H23 lung
RXF 393 renal = tested on: RXF 393 renal
K-562 leukemia = tested on: K-562 leukemia
KM20L2 colon = tested on: KM20L2 colon
NCI-H522 lung = tested on: NCI-H522 lung
HCT-116 colon = tested on: HCT-116 colon
OVCAR-3 ovarian = tested on: OVCAR-3 ovarian
A549 NSCLC = tested on: A549 NSCLC
A498 renal = tested on: A498 renal
SNB-78 CNS = tested on: SNB-78 CNS
EKVX NSCLC = tested on: EKVX NSCLC
DLD-1 colon = tested on: DLD-1 colon
NCI-H460 lung = tested on: NCI-H460 lung
TK-10 renal = tested on: TK-10 renal
SK-MEL-28 melanoma = tested on: SK-MEL-28 melanoma
HL-60(TB) leukemia = tested on: HL-60(TB) leukemia
IGROV1 ovarian = tested on: IGROV1 ovarian
SNB-75 CNS = tested on: SNB-75 CNS
HOP-92 NSCLC = tested on: HOP-92 NSCLC
SW-620 colon = tested on: SW-620 colon
SK-MEL-2 melanoma = tested on: SK-MEL-2 melanoma
DMS 273 small cell lung = tested on: DMS 273 small cell lung
XF 498 CNS = tested on: XF 498 CNS
KM12 colon = tested on: KM12 colon
SK-OV-3 ovarian = tested on: SK-OV-3 ovarian
OVCAR-5 ovarian = tested on: OVCAR-5 ovarian
COLO 205 colon = tested on: COLO 205 colon
M14 melanoma = tested on: M14 melanoma
LXFL 529 NSCLC = tested on: LXFL 529 NSCLC
U251 CNS = tested on: U251 CNS
SF-539 CNS = tested on: SF-539 CNS
RXF-631 renal = tested on: RXF-631 renal
LOX IMVI melanoma = tested on: LOX IMVI melanoma
UACC-257 melanoma = tested on: UACC-257 melanoma
DMS 114 small cell lung = tested on: DMS 114 small cell lung
MALME-3M melanoma = tested on: MALME-3M melanoma
OVCAR-8 ovarian = tested on: OVCAR-8 ovarian
HCC-2998 colon = tested on: HCC-2998 colon
SF-268 CNS = tested on: SF-268 CNS
SF-295 CNS = tested on: SF-295 CNS
HOP-18 NSCLC = tested on: HOP-18 NSCLC
OVCAR-4 ovarian = tested on: OVCAR-4 ovarian
SN12C renal = tested on: SN12C renal
HCT-15 colon = tested on: HCT-15 colon
SNB-19 CNS = tested on: SNB-19 CNS
CAKI-1 renal = tested on: CAKI-1 renal

Measured: TGI

CSCCC(C(=O)O)N(CC1(O)OCC(O)C(O)C1O)N=O (stereo not drawn)
not listed: SF-268 CNS | SF-295 CNS | HOP-18 NSCLC | OVCAR-4 ovarian | SN12C renal | HCT-15 colon | SNB-19 CNS | CAKI-1 renal
> 100 µM: all other assays above

O=c1ccnc2ccc3n[nH][nH]c3c12
not listed: UO-31 renal | NCI-H522 lung | LOX IMVI melanoma
> 100 µM: all other assays above
